Here are results for one compound from ChEMBL document CHEMBL5576124, “Discovery of an Exceptionally Orally Bioavailable and Potent HPK1 PROTAC with Enhancement of Antitumor Efficacy of Anti-PD-L1 Therapy” (J Med Chem, 2024).

pIC50: −log10 of the molar value. Activity calls are given as the source filed them. The calls are words filed in the database; no cut-off is given here.

Series [1] can be described thus: Metabolic stability in human liver microsomes assessed as hepatic extraction ratio. Type of series: ADME, Microsome. Particulars: read-out: ERH.
In series [2] the target is T1, Protein cereblon/Mitogen-activated protein kinase kinase kinase kinase 1 (Homo sapiens, UniProt Q92918+Q96SW2). As to the kind of experiment: PROTAC activity at CRBN/HPK1 in human Jurkat cells assessed as degradation of HPK1 protein at 1 uM preincubated with MLN4924 followed by compound addition incubated for 24 hrs by Western blotting analysis. Type of series: cell-based.
Target sequence in this assay (Q92918 whole entry, looked up): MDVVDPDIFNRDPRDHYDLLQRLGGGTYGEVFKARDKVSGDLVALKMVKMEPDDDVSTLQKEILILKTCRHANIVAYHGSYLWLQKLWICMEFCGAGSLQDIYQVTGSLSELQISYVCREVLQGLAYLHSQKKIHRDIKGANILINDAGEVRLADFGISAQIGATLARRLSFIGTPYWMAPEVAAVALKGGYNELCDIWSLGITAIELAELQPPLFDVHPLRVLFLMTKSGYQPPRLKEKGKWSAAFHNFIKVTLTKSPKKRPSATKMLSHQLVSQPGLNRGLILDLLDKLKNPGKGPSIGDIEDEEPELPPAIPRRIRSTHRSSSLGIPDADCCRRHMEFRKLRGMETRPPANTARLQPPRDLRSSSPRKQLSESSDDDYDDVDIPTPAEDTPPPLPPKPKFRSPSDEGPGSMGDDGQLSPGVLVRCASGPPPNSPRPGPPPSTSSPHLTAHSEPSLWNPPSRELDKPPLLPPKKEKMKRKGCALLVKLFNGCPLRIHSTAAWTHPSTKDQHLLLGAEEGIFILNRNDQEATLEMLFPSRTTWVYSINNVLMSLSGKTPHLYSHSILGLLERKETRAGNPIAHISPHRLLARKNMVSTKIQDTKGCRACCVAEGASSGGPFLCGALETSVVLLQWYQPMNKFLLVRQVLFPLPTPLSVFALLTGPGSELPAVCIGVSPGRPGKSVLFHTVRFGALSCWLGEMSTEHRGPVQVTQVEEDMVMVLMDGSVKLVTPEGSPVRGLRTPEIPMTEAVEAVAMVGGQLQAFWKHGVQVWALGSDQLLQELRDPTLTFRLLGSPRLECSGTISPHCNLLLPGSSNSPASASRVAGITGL
Target sequence in this assay (Q96SW2 whole entry, looked up): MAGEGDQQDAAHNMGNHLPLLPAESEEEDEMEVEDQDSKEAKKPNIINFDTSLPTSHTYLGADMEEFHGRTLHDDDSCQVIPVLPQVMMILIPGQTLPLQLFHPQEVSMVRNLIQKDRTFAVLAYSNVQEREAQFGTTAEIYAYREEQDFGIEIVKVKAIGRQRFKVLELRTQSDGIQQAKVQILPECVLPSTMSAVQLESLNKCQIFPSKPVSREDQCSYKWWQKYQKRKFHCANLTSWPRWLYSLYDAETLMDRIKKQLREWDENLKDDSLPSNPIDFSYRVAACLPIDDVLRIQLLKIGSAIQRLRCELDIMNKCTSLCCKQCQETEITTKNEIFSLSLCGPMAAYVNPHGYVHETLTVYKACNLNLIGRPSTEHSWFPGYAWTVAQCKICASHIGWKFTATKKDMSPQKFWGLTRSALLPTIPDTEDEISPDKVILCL

Series [3] has as its target Mitogen-activated protein kinase kinase kinase kinase 1 (Homo sapiens, UniProt Q92918). As to the kind of experiment: Inhibition of HPK1 (unknown origin).
A short description of series [4]: Toxicity in BALB/c mouse implanted with mouse CT26 cells assessed as change in body weight at 25 mg/kg,po administrated once daily for 15 days. Type of series: organism-based. Particulars: in vivo, 360 h, time 15 day.
The nature of series [5]: Stability in mouse liver microsomes assessed as parent compound remaining measured after 30 mins. Type of series: ADME, Microsome. Particulars: read-out: Stability.
Series [6] is described as follows: Metabolic stability in mouse liver microsomes assessed as half life. Type of series: ADME, Microsome.
Series [7] deals with T1, Protein cereblon/Mitogen-activated protein kinase kinase kinase kinase 1. Kind of series: PROTAC activity at CRBN/HPK1 in human Jurkat cells assessed as degradation of HPK1 protein at 1 uM preincubated with cycloheximide followed by compound addition incubated for 4 hrs by Western blotting analysis. Type of series: cell-based.
Target sequence in this assay (Q92918 whole entry, looked up): as the sequence (Q92918 whole entry, looked up) above
Target sequence in this assay (Q96SW2 whole entry, looked up): as the sequence (Q96SW2 whole entry, looked up) above
Series [8] is described as follows: Stability in mouse liver microsomes assessed as parent compound remaining. Type of series: ADME, Microsome.
Series [9] in a line: MRT in Sprague-Dawley rat at 10 mg/kg,po measured upto 24 hrs by LC-MS analysis. Type of series: ADME, organism-based. Particulars: in vivo.
A short description of series [10]: AUC (0 to t) in Sprague-Dawley rat at 10 mg/kg,po measured upto 24 hrs by LC-MS analysis. It is filed as ADME, organism-based. Particulars: in vivo.
Series [11] is described as follows: Metabolic stability in human liver microsomes assessed as half life. Type of series: ADME, Microsome.
Series [12] is described as follows: Half life in ICR mouse at 1 mg/kg,iv measured upto 24 hrs by LC-MS analysis. Type of series: ADME, organism-based. Particulars: in vivo.
In series [13] the test system is Jurkat. As to the kind of experiment: Immunostimulatory activity in anti-CD3/CD28 induced human Jurkat cells assessed as downregulation of SLP76 expression by Western blotting analysis. It is filed as functional, cell-based.
Series [14] is described as follows: Stability in mouse liver microsomes assessed as parent compound remaining measured after 60 mins. Type of series: ADME, Microsome. Particulars: read-out: Stability.
The subject of series [15] is Jurkat. As to the kind of experiment: Immunostimulatory activity in anti-CD3/CD28 induced human Jurkat cells assessed as downregulation of NF-kappaB expression by Western blotting analysis. Type of series: functional, cell-based.
Series [16] deals with T1, Protein cereblon/Mitogen-activated protein kinase kinase kinase kinase 1. Kind of series: PROTAC activity at CRBN/HPK1 in human Jurkat cells assessed as degradation of HPK1 protein incubated for 24 hrs by Western blotting analysis. It is filed as cell-based.
Target sequence in this assay (Q92918 whole entry): as the sequence (Q92918 whole entry, looked up) above
Target sequence in this assay (Q96SW2 whole entry): as the sequence (Q96SW2 whole entry, looked up) above
Series [17] has as its system T-cell line. As to the kind of experiment: Immunostimulatory activity in human T cell assessed as increase in IL-2 secretion at 10 uM relative to control. It is filed as functional.
A short description of series [18]: Half life in ICR mouse at 10 mg/kg,po measured upto 24 hrs by LC-MS analysis. Type of series: ADME, organism-based. Particulars: in vivo.
The subject of series [19] is Jurkat. As to the kind of experiment: Immunostimulatory activity in anti-CD3/CD28 induced human Jurkat cells assessed as downregulation of NF-kappaB phosphorylation by Western blotting analysis. It is filed as functional, cell-based.
In series [20] the test system is T-cell line. As to the kind of experiment: Immunostimulatory activity in human T cell assessed as fold increase in IL-2 secretion. Type of series: functional.
The target of series [21] is T2, Mitogen-activated protein kinase kinase kinase kinase 3 (Homo sapiens, UniProt Q8IVH8).
T2 sequence (Q8IVH8 whole entry): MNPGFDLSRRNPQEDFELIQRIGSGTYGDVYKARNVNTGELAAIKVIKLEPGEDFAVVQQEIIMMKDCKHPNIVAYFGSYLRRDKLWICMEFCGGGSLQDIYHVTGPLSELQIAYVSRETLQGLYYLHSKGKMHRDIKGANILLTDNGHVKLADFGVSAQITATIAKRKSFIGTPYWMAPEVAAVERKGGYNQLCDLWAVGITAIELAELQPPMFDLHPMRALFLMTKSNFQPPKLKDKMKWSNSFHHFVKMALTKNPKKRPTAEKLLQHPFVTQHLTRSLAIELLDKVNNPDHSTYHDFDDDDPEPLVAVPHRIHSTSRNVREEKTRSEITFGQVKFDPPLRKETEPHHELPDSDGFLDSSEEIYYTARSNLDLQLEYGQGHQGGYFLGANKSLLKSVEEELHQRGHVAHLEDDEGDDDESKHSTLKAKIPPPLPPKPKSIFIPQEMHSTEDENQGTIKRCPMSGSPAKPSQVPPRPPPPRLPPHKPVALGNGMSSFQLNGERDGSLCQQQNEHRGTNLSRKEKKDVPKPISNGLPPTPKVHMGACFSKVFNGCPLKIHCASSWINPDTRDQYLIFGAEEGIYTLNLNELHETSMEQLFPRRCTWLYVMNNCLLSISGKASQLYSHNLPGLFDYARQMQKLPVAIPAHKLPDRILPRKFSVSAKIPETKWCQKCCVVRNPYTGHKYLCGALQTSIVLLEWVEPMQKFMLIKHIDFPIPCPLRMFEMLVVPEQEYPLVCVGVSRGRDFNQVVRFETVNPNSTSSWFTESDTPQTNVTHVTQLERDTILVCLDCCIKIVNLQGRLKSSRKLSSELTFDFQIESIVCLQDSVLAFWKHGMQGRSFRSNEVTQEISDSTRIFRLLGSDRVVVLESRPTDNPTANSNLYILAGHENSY
Kind of series: Inhibition of GLK (unknown origin).

Series [22] can be described thus: Tmax in ICR mouse at 10 mg/kg,po measured upto 24 hrs by LC-MS analysis. Particulars: in vivo. Type of series: ADME, organism-based.
Series [23] is described as follows: Tmax in ICR mouse at 1 mg/kg,iv measured upto 24 hrs by LC-MS analysis. It is filed as ADME, organism-based. Particulars: in vivo.
The subject of series [24] is Jurkat. As to the kind of experiment: Antiproliferative activity against human Jurkat cells assessed as inhibition of cell growth at 4 to 10000 nM incubated for 3 days by CCK-8 assay. Type of series: functional, cell-based. Particulars: dose 4-10000 nM, time 3.0 day.

Mitogen-activated protein kinase kinase kinase kinase 1, sequence (Q92918 whole entry): as the sequence (Q92918 whole entry, looked up) above

In the case of `Cc1cc(-c2c[nH]c3ncc(-c4ccc(C5CCN(C6CN(c7ccc8c(c7)C(=O)N(C7CCC(=O)NC7=O)C8=O)C6)CC5)cc4)nc23)ccc1C(=O)N(C)C` (centres undefined), the hepatic extraction ratio in [1] turned out to be 0.058. The outcome in series [2] and in series [24] was inactive. For the same compound, the pIC50 in series [3] is 7.51; in series [21], less than 6.30. Also, the Activity entry is reported as “Non-Toxic” in series [4] and 2361.07% in [17]. For the same compound, in series [5], the remaining at 0.5 h was 70.3%. For the same compound, the half-life in series [6] was 1.25 h; in [11], 16.5 h; in [12], 3.13 h; in series [18], 4.33 h. The result in series [7], in series [13], in series [15] and in series [19] was Active. Also, in [8], the Stability amounted to 100%. This compound also displayed an MRT in [9] of 9.62 h. Besides, the AUC(0-t) at 24 h in series [10] stood at 16400 ng·h/mL. Further, in series [14], the remaining at 1 h turned out to be 59.4%. The DC50 in [16] worked out at 4.5 nM. In addition, the “fold change (FC)” value in series [20] is 70. In addition, the results for the Tmax in series [22] and in series [23] were 4 h and 4.8 min, respectively.
